Test results as given in PubChem BioAssay (NCI).
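Briefly, cells in 96-well plates were exposed to five compound concentrations for 48 h, and endpoints were estimated by linear interpolation. GI50 marks 50% less growth. The concentration for full growth arrest is given as TGI.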

Columns and labels:
Assay in all cases: NCI tumour cell line growth inhibition, 48 h; in the data active = GI50 below about 0.43 µM; inactive = the rest
786-0 renal = tested on: 786-0 renal
A498 renal = tested on: A498 renal
A549 NSCLC = tested on: A549 NSCLC
ACHN renal = tested on: ACHN renal
BT-549 breast = tested on: BT-549 breast
CAKI-1 renal = tested on: CAKI-1 renal
CCRF-CEM leukemia = tested on: CCRF-CEM leukemia
COLO 205 colon = tested on: COLO 205 colon
DU-145 prostate = tested on: DU-145 prostate
EKVX NSCLC = tested on: EKVX NSCLC
HCC-2998 colon = tested on: HCC-2998 colon
HCT-116 colon = tested on: HCT-116 colon
HCT-15 colon = tested on: HCT-15 colon
HL-60(TB) leukemia = tested on: HL-60(TB) leukemia
HOP-62 NSCLC = tested on: HOP-62 NSCLC
HS 578T breast = tested on: HS 578T breast
HT29 colon = tested on: HT29 colon
IGROV1 ovarian = tested on: IGROV1 ovarian
K-562 leukemia = tested on: K-562 leukemia
KM12 colon = tested on: KM12 colon
LOX IMVI melanoma = tested on: LOX IMVI melanoma
M14 melanoma = tested on: M14 melanoma
MALME-3M melanoma = tested on: MALME-3M melanoma
MCF7 breast = tested on: MCF7 breast
MDA-MB-231 breast = tested on: MDA-MB-231 breast
MDA-MB-435 = tested on: MDA-MB-435
MOLT-4 leukemia = tested on: MOLT-4 leukemia
NCI-H226 lung = tested on: NCI-H226 lung
NCI-H23 lung = tested on: NCI-H23 lung
NCI-H460 lung = tested on: NCI-H460 lung
NCI-H522 lung = tested on: NCI-H522 lung
NCI/ADR-RES ovarian = tested on: NCI/ADR-RES ovarian
OVCAR-3 ovarian = tested on: OVCAR-3 ovarian
OVCAR-4 ovarian = tested on: OVCAR-4 ovarian
OVCAR-5 ovarian = tested on: OVCAR-5 ovarian
OVCAR-8 ovarian = tested on: OVCAR-8 ovarian
PC-3 prostate = tested on: PC-3 prostate
RPMI-8226 leukemia = tested on: RPMI-8226 leukemia
RXF 393 renal = tested on: RXF 393 renal
SF-268 CNS = tested on: SF-268 CNS
SF-295 CNS = tested on: SF-295 CNS
SF-539 CNS = tested on: SF-539 CNS
SK-MEL-2 melanoma = tested on: SK-MEL-2 melanoma
SK-MEL-28 melanoma = tested on: SK-MEL-28 melanoma
SK-MEL-5 melanoma = tested on: SK-MEL-5 melanoma
SK-OV-3 ovarian = tested on: SK-OV-3 ovarian
SN12C renal = tested on: SN12C renal
SNB-19 CNS = tested on: SNB-19 CNS
SNB-75 CNS = tested on: SNB-75 CNS
SR leukemia = tested on: SR leukemia
SW-620 colon = tested on: SW-620 colon
T-47D breast = tested on: T-47D breast
TK-10 renal = tested on: TK-10 renal
U251 CNS = tested on: U251 CNS
UACC-257 melanoma = tested on: UACC-257 melanoma
UACC-62 melanoma = tested on: UACC-62 melanoma
UO-31 renal = tested on: UO-31 renal

CS(=O)(=O)CCN(CC#N)Cc1ccc(-c2ccc3ncnc(Nc4ccc(OCc5cccc(F)c5)c(Cl)c4)c3c2)o1
> 23.7 µM: TGI (A498 renal) | TGI (T-47D breast)
active: GI50 (EKVX NSCLC) 0.313 µM | GI50 (SK-OV-3 ovarian) 0.107 µM
> 23.5 µM: TGI (RXF 393 renal)
> 20.4 µM: TGI (HS 578T breast)
19.8 µM: TGI (LOX IMVI melanoma)
> 25 µM: TGI (786-0 renal) | TGI (A549 NSCLC) | TGI (ACHN renal) | TGI (BT-549 breast) | TGI (CAKI-1 renal) | TGI (CCRF-CEM leukemia) | TGI (COLO 205 colon) | TGI (DU-145 prostate) | TGI (EKVX NSCLC) | TGI (HCC-2998 colon) | TGI (HCT-116 colon) | TGI (HCT-15 colon) | TGI (HL-60(TB) leukemia) | TGI (HOP-62 NSCLC) | TGI (HT29 colon) | TGI (IGROV1 ovarian) | TGI (K-562 leukemia) | TGI (KM12 colon) | TGI (M14 melanoma) | TGI (MALME-3M melanoma) | TGI (MCF7 breast) | TGI (MDA-MB-231 breast) | TGI (MDA-MB-435) | TGI (MOLT-4 leukemia) | TGI (NCI-H226 lung) | TGI (NCI-H23 lung) | TGI (NCI-H460 lung) | TGI (NCI/ADR-RES ovarian) | TGI (OVCAR-3 ovarian) | TGI (OVCAR-4 ovarian) | TGI (OVCAR-5 ovarian) | TGI (OVCAR-8 ovarian) | TGI (PC-3 prostate) | TGI (RPMI-8226 leukemia) | TGI (SF-268 CNS) | TGI (SF-295 CNS) | TGI (SF-539 CNS) | TGI (SK-MEL-2 melanoma) | TGI (SK-MEL-28 melanoma) | TGI (SK-MEL-5 melanoma) | TGI (SK-OV-3 ovarian) | TGI (SN12C renal) | TGI (SNB-19 CNS) | TGI (SNB-75 CNS) | TGI (SR leukemia) | TGI (SW-620 colon) | TGI (TK-10 renal) | TGI (U251 CNS) | TGI (UACC-257 melanoma) | TGI (UACC-62 melanoma) | TGI (UO-31 renal)
> 18.5 µM: TGI (NCI-H522 lung)
inactive: GI50 (786-0 renal) 14.9 µM | GI50 (A498 renal) 4.29 µM | GI50 (A549 NSCLC) 14.6 µM | GI50 (ACHN renal) 1.73 µM | GI50 (BT-549 breast) 15.6 µM | GI50 (CAKI-1 renal) 0.896 µM | GI50 (CCRF-CEM leukemia) 9.45 µM | GI50 (COLO 205 colon) > 19.1 µM | GI50 (DU-145 prostate) 10.5 µM | GI50 (HCC-2998 colon) 15.1 µM | GI50 (HCT-116 colon) 11 µM | GI50 (HCT-15 colon) 10.2 µM | GI50 (HL-60(TB) leukemia) 11.2 µM | GI50 (HOP-62 NSCLC) > 25 µM | GI50 (HS 578T breast) 6.13 µM | GI50 (HT29 colon) 10.3 µM | GI50 (IGROV1 ovarian) 6.25 µM | GI50 (K-562 leukemia) 9.98 µM | GI50 (KM12 colon) 9.34 µM | GI50 (LOX IMVI melanoma) 6.52 µM | GI50 (M14 melanoma) 11.7 µM | GI50 (MALME-3M melanoma) 14.9 µM | GI50 (MCF7 breast) 8.66 µM | GI50 (MDA-MB-231 breast) 8.35 µM | GI50 (MDA-MB-435) 11 µM | GI50 (MOLT-4 leukemia) 8.81 µM | GI50 (NCI-H226 lung) > 25 µM | GI50 (NCI-H23 lung) 13.2 µM | GI50 (NCI-H460 lung) 10.9 µM | GI50 (NCI-H522 lung) 4.3 µM | GI50 (NCI/ADR-RES ovarian) 8.17 µM | GI50 (OVCAR-3 ovarian) 10.6 µM | GI50 (OVCAR-4 ovarian) 11.4 µM | GI50 (OVCAR-5 ovarian) 7.89 µM | GI50 (OVCAR-8 ovarian) 9.75 µM | GI50 (PC-3 prostate) 10.9 µM | GI50 (RPMI-8226 leukemia) 11.7 µM | GI50 (RXF 393 renal) 10.8 µM | GI50 (SF-268 CNS) 16 µM | GI50 (SF-295 CNS) 24.7 µM | GI50 (SF-539 CNS) > 25 µM | GI50 (SK-MEL-2 melanoma) 17.3 µM | GI50 (SK-MEL-28 melanoma) > 25 µM | GI50 (SK-MEL-5 melanoma) 4.91 µM | GI50 (SN12C renal) 12.7 µM | GI50 (SNB-19 CNS) > 25 µM | GI50 (SNB-75 CNS) > 17.1 µM | GI50 (SR leukemia) 8.93 µM | GI50 (SW-620 colon) 11.7 µM | GI50 (T-47D breast) 5.48 µM | GI50 (TK-10 renal) 1.19 µM | GI50 (U251 CNS) 15.2 µM | GI50 (UACC-257 melanoma) > 25 µM | GI50 (UACC-62 melanoma) > 22.3 µM | GI50 (UO-31 renal) 5.56 µM
